What was measured:
Test in all cases: relative viability (nuclei count vs DMSO), 5 days (fraction); higher = more cells survive
A-427 = test system: A-427
Method in brief: (§1)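 Lung cancer cell lines were seeded in 1536-well plates and dosed by pin tool the next day, with either a single drug or a fixed anchor-drug dose combined with five library-drug doses (not always all listed) spaced in √10 steps. Five days later, one step fixed the cells and stained their nuclei (final 0.05% Triton X-100, 1% formaldehyde, 1 ug/ml Hoechst), and nuclei were counted on 4× images. Relative viability is the nuclei count in treated wells divided by the count in vehicle wells, and each value is the median of duplicate plates.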

HCC-15 = test system: HCC-15
Method in brief: as §1

HOP-62 = test system: HOP-62
Method in brief: as §1

LC-2-ad = test system: LC-2-ad
Method in brief: as §1

LXF-289 = test system: LXF-289
Method in brief: as §1

NCI-H1734 = test system: NCI-H1734
Method in brief: as §1

NCI-H1755 = test system: NCI-H1755
Method in brief: as §1

NCI-H1792 = test system: NCI-H1792
Method in brief: as §1

NCI-H1915 = test system: NCI-H1915
Method in brief: as §1

NCI-H1975 = test system: NCI-H1975
Method in brief: as §1

NCI-H2126 = test system: NCI-H2126
Method in brief: as §1

NCI-H2228 = test system: NCI-H2228
Method in brief: as §1

NCI-H2342 = test system: NCI-H2342
Method in brief: as §1

NCI-H2347 = test system: NCI-H2347
Method in brief: as §1

NCI-H358 = test system: NCI-H358
Method in brief: as §1

NCI-H522 = test system: NCI-H522
Method in brief: as §1

NCI-H647 = test system: NCI-H647
Method in brief: as §1

PC-3 [JPC-3] = test system: PC-3 [JPC-3]
Method in brief: as §1

RERF-LC-KJ = test system: RERF-LC-KJ
Method in brief: as §1

SK-LU-1 = test system: SK-LU-1
Method in brief: as §1

SW 1573 = test system: SW 1573
Method in brief: as §1

Compound: O=c1cc(-c2cccc3c2Sc2ccccc2S3)oc(N2CCOCC2)c1 + CCNC(=O)c1noc(-c2cc(C(C)C)c(O)cc2O)c1-c1ccc(CN2CCOCC2)cc1 [Luminespib] (partner 0.01 µM)
- relative viability (A-427; first compound 0.08 µM): 0.92
- relative viability (A-427; first compound 0.253 µM): 1.18
- relative viability (A-427; first compound 0.8 µM): 1.01
- relative viability (A-427; first compound 2.53 µM): 0.842
- relative viability (A-427; first compound 8 µM): 1.09
- relative viability (HCC-15; first compound 0.08 µM): 0.206
- relative viability (HCC-15; first compound 0.253 µM): 0.207
- relative viability (HCC-15; first compound 0.8 µM): 0.373
- relative viability (HCC-15; first compound 2.53 µM): 0.242
- relative viability (HCC-15; first compound 8 µM): 0.276
- relative viability (HOP-62; first compound 0.08 µM): 1.06
- relative viability (HOP-62; first compound 0.253 µM): 1.04
- relative viability (HOP-62; first compound 0.8 µM): 1.03
- relative viability (HOP-62; first compound 2.53 µM): 0.983
- relative viability (HOP-62; first compound 8 µM): 1.02
- relative viability (LC-2-ad; first compound 0.08 µM): 0.979
- relative viability (LC-2-ad; first compound 0.253 µM): 1.12
- relative viability (LC-2-ad; first compound 0.8 µM): 1.13
- relative viability (LC-2-ad; first compound 2.53 µM): 0.955
- relative viability (LC-2-ad; first compound 8 µM): 0.965
- relative viability (LXF-289; first compound 0.08 µM): 0.607
- relative viability (LXF-289; first compound 0.253 µM): 0.764
- relative viability (LXF-289; first compound 0.8 µM): 0.636
- relative viability (LXF-289; first compound 2.53 µM): 0.69
- relative viability (LXF-289; first compound 8 µM): 0.765
- relative viability (NCI-H1734; first compound 0.08 µM): 0.195
- relative viability (NCI-H1734; first compound 0.253 µM): 0.175
- relative viability (NCI-H1734; first compound 0.8 µM): 0.228
- relative viability (NCI-H1734; first compound 8 µM): 0.2
- relative viability (NCI-H1755; first compound 0.08 µM): 0.425
- relative viability (NCI-H1755; first compound 0.253 µM): 0.614
- relative viability (NCI-H1755; first compound 0.8 µM): 0.378
- relative viability (NCI-H1755; first compound 2.53 µM): 0.641
- relative viability (NCI-H1755; first compound 8 µM): 0.5
- relative viability (NCI-H1792; first compound 0.08 µM): 0.362
- relative viability (NCI-H1792; first compound 0.253 µM): 0.686
- relative viability (NCI-H1792; first compound 0.8 µM): 0.329
- relative viability (NCI-H1792; first compound 2.53 µM): 0.424
- relative viability (NCI-H1792; first compound 8 µM): 0.328
- relative viability (NCI-H1915; first compound 0.08 µM): 0.968
- relative viability (NCI-H1915; first compound 0.253 µM): 0.827
- relative viability (NCI-H1915; first compound 0.8 µM): 0.911
- relative viability (NCI-H1915; first compound 2.53 µM): 0.775
- relative viability (NCI-H1915; first compound 8 µM): 0.769
- relative viability (NCI-H1975; first compound 0.08 µM): 0.121
- relative viability (NCI-H1975; first compound 0.253 µM): 0.167
- relative viability (NCI-H1975; first compound 0.8 µM): 0.15
- relative viability (NCI-H1975; first compound 2.53 µM): 0.231
- relative viability (NCI-H1975; first compound 8 µM): 0.169
- relative viability (NCI-H2126; first compound 0.08 µM): 0.791
- relative viability (NCI-H2126; first compound 0.253 µM): 1
- relative viability (NCI-H2126; first compound 0.8 µM): 0.963
- relative viability (NCI-H2126; first compound 2.53 µM): 0.822
- relative viability (NCI-H2126; first compound 8 µM): 0.836
- relative viability (NCI-H2228; first compound 0.08 µM): 0.139
- relative viability (NCI-H2228; first compound 0.253 µM): 0.106
- relative viability (NCI-H2228; first compound 0.8 µM): 0.129
- relative viability (NCI-H2228; first compound 2.53 µM): 0.146
- relative viability (NCI-H2228; first compound 8 µM): 0.143
- relative viability (NCI-H2342; first compound 0.08 µM): 0.676
- relative viability (NCI-H2342; first compound 0.253 µM): 0.68
- relative viability (NCI-H2342; first compound 0.8 µM): 0.715
- relative viability (NCI-H2342; first compound 2.53 µM): 0.663
- relative viability (NCI-H2342; first compound 8 µM): 0.731
- relative viability (NCI-H2347; first compound 0.08 µM): 0.529
- relative viability (NCI-H2347; first compound 0.253 µM): 0.358
- relative viability (NCI-H2347; first compound 0.8 µM): 0.284
- relative viability (NCI-H2347; first compound 2.53 µM): 0.461
- relative viability (NCI-H2347; first compound 8 µM): 0.391
- relative viability (NCI-H358; first compound 0.08 µM): 0.154
- relative viability (NCI-H358; first compound 0.253 µM): 0.388
- relative viability (NCI-H358; first compound 0.8 µM): 0.329
- relative viability (NCI-H358; first compound 2.53 µM): 0.375
- relative viability (NCI-H358; first compound 8 µM): 0.292
- relative viability (NCI-H522; first compound 0.08 µM): 0.999
- relative viability (NCI-H522; first compound 0.253 µM): 1.03
- relative viability (NCI-H522; first compound 0.8 µM): 1.21
- relative viability (NCI-H522; first compound 2.53 µM): 1.13
- relative viability (NCI-H522; first compound 8 µM): 1.08
- relative viability (NCI-H647; first compound 0.08 µM): 0.123
- relative viability (NCI-H647; first compound 0.253 µM): 0.138
- relative viability (NCI-H647; first compound 0.8 µM): 0.259
- relative viability (NCI-H647; first compound 2.53 µM): 0.183
- relative viability (NCI-H647; first compound 8 µM): 0.161
- relative viability (PC-3 [JPC-3]; first compound 0.08 µM): 0.685
- relative viability (PC-3 [JPC-3]; first compound 0.253 µM): 0.765
- relative viability (PC-3 [JPC-3]; first compound 0.8 µM): 0.862
- relative viability (PC-3 [JPC-3]; first compound 2.53 µM): 0.687
- relative viability (PC-3 [JPC-3]; first compound 8 µM): 0.493
- relative viability (RERF-LC-KJ; first compound 0.08 µM): 1.06
- relative viability (RERF-LC-KJ; first compound 0.253 µM): 1.56
- relative viability (RERF-LC-KJ; first compound 0.8 µM): 1.24
- relative viability (RERF-LC-KJ; first compound 2.53 µM): 1.35
- relative viability (RERF-LC-KJ; first compound 8 µM): 1.42
- relative viability (SK-LU-1; first compound 0.08 µM): 0.192
- relative viability (SK-LU-1; first compound 0.253 µM): 0.186
- relative viability (SK-LU-1; first compound 0.8 µM): 0.209
- relative viability (SK-LU-1; first compound 2.53 µM): 0.178
- relative viability (SK-LU-1; first compound 8 µM): 0.183
- relative viability (SW 1573; first compound 0.08 µM): 0.213
- relative viability (SW 1573; first compound 0.253 µM): 0.18
- relative viability (SW 1573; first compound 0.8 µM): 0.495
- relative viability (SW 1573; first compound 2.53 µM): 0.194
- relative viability (SW 1573; first compound 8 µM): 0.237
